# Legend:
# A2780 = test: Cytotoxicity against human A2780 cells after 96 hrs by sulforhodamine-B assay; format: functional, cell-based; conditions: A2780, 96 h
# [1] = Selectivity index, ratio of EC50 for mouse NIH/3T3 cells to EC50 for human A2780 cells; format: toxicity; conditions: NIH/3T3 cells and A2780 cells, read-out: Ratio EC50
# FaDu = test: Cytotoxicity against human FADU cells after 96 hrs by sulforhodamine-B assay; format: functional, cell-based
# HT-29 = test: Cytotoxicity against human HT-29 cells after 96 hrs by sulforhodamine-B assay; format: functional, cell-based; conditions: HT-29, 96 h
# A549 = test: Cytotoxicity against human A549 cells after 96 hrs by sulforhodamine-B assay; format: functional, cell-based; conditions: A549, 96 h
# MCF7 = test: Cytotoxicity against human MCF7 cells after 96 hrs by sulforhodamine-B assay; format: functional, cell-based; conditions: MCF7, 96 h
# NIH3T3 = test: Cytotoxicity against mouse NIH/3T3 cells after 96 hrs by sulforhodamine-B assay; format: cell-based; conditions: NIH3T3, 96 h
# 518A2 = test: Cytotoxicity against human 518A2 cells after 96 hrs by sulforhodamine-B assay; format: functional, cell-based; conditions: 518A2, 96 h
Compound,EC50 (A2780) [µM],selectivity ratio [1],EC50 (FaDu) [µM],EC50 (HT-29) [µM],EC50 (A549) [µM],EC50 (MCF7) [µM],EC50 (NIH3T3) [µM],EC50 (518A2) [µM]
COC(=O)CNC(=O)CN(Cc1ccoc1)C(=O)[C@]12CCC(C)(C)C[C@H]1C1=CC[C@@H]3[C@@]4(C)CC[C@H](OC(C)=O)C(C)(C)[C@@H]4CC[C@@]3(C)[C@]1(C)CC2,3.5,2.5,5.9,14.3,6.5,7,8.9,6.5
C=CCN(CC(=O)NCCCC)C(=O)[C@]12CCC(C)(C)C[C@H]1C1=CC[C@@H]3[C@@]4(C)CC[C@H](OC(C)=O)C(C)(C)[C@@H]4CC[C@@]3(C)[C@]1(C)CC2,3.1,,16.1,> 30,> 30,> 30,> 30,15
CC(=O)O[C@@H]1C[C@]2(C)[C@H]3CC=C4[C@@H]5CC(C)(C)CC[C@]5(C(=O)N(CC(=O)NCc5ccccc5)Cc5ccoc5)CC[C@@]4(C)[C@]3(C)CC[C@H]2C(C)(C)[C@H]1OC(C)=O,2.1,,14.1,9.9,5.4,3.4,6.5,13.1
CCCCNC(=O)CN(Cc1ccccc1)C(=O)[C@]12CCC(C)(C)C[C@H]1C1=CC[C@@H]3[C@@]4(C)CC[C@H](OC(C)=O)C(C)(C)[C@@H]4CC[C@@]3(C)[C@]1(C)CC2,3,,22.7,> 30,> 30,22.1,> 30,> 30
CC(=O)O[C@H]1CC[C@]2(C)[C@H]3CC=C4[C@@H]5CC(C)(C)CC[C@]5(C(=O)OCC(=O)NC(C)(C)C)CC[C@@]4(C)[C@]3(C)CC[C@H]2C1(C)C,8.8,,12.7,27.4,13.2,12.9,20,13.2
CC(=O)O[C@@H]1C[C@]2(C)[C@H]3CC=C4[C@@H]5CC(C)(C)CC[C@]5(C(=O)N(CC(=O)NC(C)(C)C)Cc5ccoc5)CC[C@@]4(C)[C@]3(C)CC[C@H]2C(C)(C)[C@H]1OC(C)=O,0.4,,3,3.4,3.5,4,7.3,3.9
CC1(C)CC[C@]2(C(=O)O)CC[C@]3(C)C(=CC[C@@H]4[C@@]5(C)CC[C@H](O)C(C)(C)[C@@H]5CC[C@]43C)[C@@H]2C1 [OLEANOLIC_ACID],58.2,,66.7,44.9,64.1,49.1,57.9,61.3
CC(=O)O[C@H]1CC[C@]2(C)[C@H]3CC=C4[C@@H]5CC(C)(C)CC[C@]5(C(=O)N(CC(=O)NCc5ccccc5)C(C)C)CC[C@@]4(C)[C@]3(C)CC[C@H]2C1(C)C,8.3,,10.1,14.1,14.9,9.7,10.2,20.9
CN(CC(=O)NC(C)(C)C)C(=O)[C@]12CCC(C)(C)C[C@H]1C1=CC[C@@H]3[C@@]4(C)CC[C@H](O)C(C)(C)[C@@H]4CC[C@@]3(C)[C@]1(C)CC2,11,,8.1,13.8,8.6,12.2,11.2,7.9
